Like-named read-outs stand apart in the source and are kept apart here. Residues, ends and D or L forms follow the SMILES beside them.

Data set [1] in a line: Ocular tissue distribution at equimolar concentration after eye dropping or intravitreal injection, ELISA (Example 5). Particulars: for active molecules that can reach the RPE/choroid complex: 5 µL per eye; for active molecules that can reach the RPE/choroid complex / maintenance time at the RPE/choroid complex: equimolar concentration. It is filed as in vivo, C57BL/6J mice. As for the experimental part: Experimental process: All the mice in the eye drop groups were administered bilateral eye drops 1 time, with 5 µL of the corresponding drug solution in each eye. At the 6 time points of 0 h, 1 h, 3 h, 7 h, 12 h, and 24 h after the completion of administration, the mice in the corresponding groups were respectively subjected to eyeball removal and blood collection, the collected whole blood was immediately centrifuged at 6,000 rpm for 5 minutes, and then, a supernatant was sucked and stored as a sample to be tested. Additionally, 3 tissue sites, namely the vitreous body, the retina, and the RPE/choroid complex, were isolated from an eyeball under a stereomicroscope, into which a phosphate buffer solution (PBS) was added at 1:10 for dilution, followed by grinding and centrifugation at 12,000 rpm for 5 minutes. A supernatant was sucked to serve as a sample to be tested. Subsequently, the concentration of the fusion polypeptide AJ007 or the multifunctional fusion polypeptide VI (HM-1) in each tissue was detected by an enzyme-linked immunosorbent assay (ELISA) method. The ELISA method is as follows: • (1) coating: diluting HM-1 with a certain concentration of a coating solution (CBS) to 1 µg/mL, adding the diluted solution into a microplate at 100 µL per well, and standing overnight at 4°C; • (2) plate washing: discarding the coating solution, adding 265 µL of a PBST washing solution to each well, washing 3 times for 3 minutes each time, and beating to dryness; • (3) blocking: adding 200 µL of a 1% BSA blocking solution to each well, placing the solution in a water bath at 37°C for 1.5 hours, repeating the plate washing process, and beating to dryness; • (4) addition of a sample to be tested and an antibody: first, adding 100 µL of the sample to be tested to a microplate, then adding 100 µL of an HM-1 monoclonal antibody dilution solution at a certain concentration, setting 2-3 replicate wells, shaking uniformly on a shaker at 37°C for 2 minutes, then transferring the mixture to a water bath pot for placement at 37°C for 2 hours, taking out the mixture after a thorough reaction, and repeating the plate washing process; • (5) reaction with an enzyme-labeled secondary antibody: adding a certain concentration of HRP enzyme-labeled goat anti-mouse IgG at 100 µL per well for incubation at 37°C for 1.5 hours, repeating the plate washing process, and beating to dryness; • (6) addition of a substrate: adding 100 µL of a TMB substrate chromogenic solution to each well for color development at room temperature in the dark for a certain period of time; • (7) termination: adding 50 µL of a termination solution to each well to terminate the reaction; and • (8) detection: reading an OD value of each well at 450 nm using a microplate reader.
This example provides an ocular tissue distribution comparison experiment of the polypeptide eye drops (AJ007 eye drops) in Example 2 with an equimolar concentration of the multifunctional fusion polypeptide VI (HM-1), a multifunctional fusion polypeptide VI preparation (HM-1 preparation, with a polypeptide being HM-1 and a formulation of other auxiliary materials being the same as the AJ007 eye drops), a fusion polypeptide AJ007 preparation (TAT-HM-1, with a polypeptide being AJ007 and pure water as a vehicle) after eye dropping, and the multifunctional fusion polypeptide VI (HM-1) after intravitreal injection, which is specifically described below.
Animal grouping: […] C57BL/6J mice were randomly divided into a total of 7 time point groups, including 0 h, 10 min, 1 h, 3 h, 7 h, 12 h, and 24 h, with 2 mice in each group.
Experimental process: All the mice in the eye drop administration groups were administered bilateral eye drops 1 time, with 5 µL of a corresponding drug solution dropped into each eye, while 5 µL of a corresponding drug solution was injected into both eyes in the HM-1 intravitreal injection group. […]
On the technique in general: ELISA stands for enzyme-linked immunosorbent assay.

For data set [2] the following is noted: cited from earlier work.

As to `C[C@H](NC(=O)CNC(=O)[C@H](CCCNC(=N)N)NC(=O)[C@H](CCCNC(=N)N)NC(=O)[C@H](CCCNC(=N)N)NC(=O)[C@H](CCCNC(=N)N)NC(=O)[C@H](CCC(N)=O)NC(=O)[C@H](CCCNC(=N)N)NC(=O)[C@H](CCCNC(=N)N)NC(=O)[C@H](CCCCN)NC(=O)[C@H](CCCCN)NC(=O)[C@H](CCCNC(=N)N)NC(=O)CNC(=O)[C@@H](N)Cc1ccc(O)cc1)C(=O)N[C@@H](CC(=O)O)C(=O)N[C@@H](CCCNC(=N)N)C(=O)N[C@@H](C)C(=O)NCC(=O)NCC(=O)NCC(=O)NCC(=O)N[C@@H](CCCNC(=N)N)C(=O)NCC(=O)N[C@@H](CC(=O)O)C(=O)O` [AJ007] (H-YGRKKRRQRRRRGADRAGGGGRGD-OH), the “ability to penetrate through the posterior segment of ocular, increase compared with HM-1” value in data set [1] (eye dropping) is reported as “approximately 600 times”. Moreover, in data set [1] (single eye dropping), the “active molecules that can reach the RPE/choroid complex” value was 6291.38 ng/mL and the “maintenance time at the RPE/choroid complex” value is “the maintenance time is also shorter”. Also, the “active molecules that can reach the RPE/choroid complex” value in data set [1] (single eye dropping, listed as TAT-HM-1) was 843.28 ng/mL.

In the case of `C[C@H](NC(=O)CNC(=O)[C@@H](N)CCCNC(=N)N)C(=O)N[C@@H](CC(=O)O)C(=O)N[C@@H](CCCNC(=N)N)C(=O)N[C@@H](C)C(=O)NCC(=O)NCC(=O)NCC(=O)NCC(=O)N[C@@H](CCCNC(=N)N)C(=O)NCC(=O)N[C@@H](CC(=O)O)C(=O)O` [HM-1, Arg-Gly-Ala-Asp-Arg-Ala-Gly-Gly-Gly-Gly-Arg-Gly-Asp] (H-RGADRAGGGGRGD-OH), the “active molecules that can reach the RPE/choroid complex” value is “approximately 5729.7 ng/mL” in data set [1] (intravitreal injection) and “less than 10 ng/mL” in data set [1] (single eye dropping). Also, the “maintenance time at the RPE/choroid complex” value is reported as “the maintenance time is shorter” in data set [1] (intravitreal injection) and “very short” in data set [1] (single eye dropping).

On to axitinib, for which the “concentration reaching the retina after eye dropping, increase” value in data set [2] (in vivo) was 5-10 times.

On to bevacizumab, for which the “ability to penetrate through and enter the posterior segment of the eye after eye dropping, increase” value in data set [2] (after linking to a cell-penetrating peptide CPP) is given as “approximately 10 times”.

With ranibizumab, the “concentration reaching the retina after eye dropping, increase” value in data set [2] (after linking to a cell-penetrating peptide, patents CN114073774A, CN114668717A) is given as “approximately 100 times”.
